Laboratory results reported in PubChem BioAssay AID330 (DTP/NCI, 2004).
“And” between values parts separate entries of the source, which are not always exact repeats. Equal entries are not always repeated. Inconclusive results and toxic doses are left out.

System: P388 leukemia ip, CD2F1 mice, survival T/C
Assay: NCI In Vivo Anticancer Drug Screen. Data for tumor model P388 Leukemia (intraperitoneal) in CD2F1 (CDF1) mice
Conditions: endpoint: median survival time, higher = longer survival
In short: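 Mice carrying the transplanted tumor received test compound or vehicle. Survival was recorded in each group, and the value is the treated-group measurement divided by that of the vehicle-treated control group.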

SMILES: Cc1c2ccncc2c(C)c2c1[nH]c1ccccc12
- T/C (dose: 0.31 mg/kg/injection, schedule: Q04DX003 (iv), vehicle: water): 99 % of control
- T/C (dose: 0.63 mg/kg/injection, schedule: Q04DX003 (iv), vehicle: water): 107 % of control
- T/C (dose: 1.25 mg/kg/injection, schedule: Q04DX003 (iv), vehicle: water): 99 % of control
- T/C (dose: 1.56 mg/kg/injection, schedule: Q04DX003 (ip), vehicle: distilled water + Tween-80): 92 % of control
- T/C (dose: 2.5 mg/kg/injection, schedule: Q04DX003 (ip), vehicle: water): 100 % of control
- T/C (dose: 2.5 mg/kg/injection, schedule: Q04DX003 (iv), vehicle: distilled water + Tween-80): 107 % of control
- T/C (dose: 2.5 mg/kg/injection, schedule: Q04DX003 (iv), vehicle: water): 94 % of control
- T/C (dose: 3.12 mg/kg/injection, schedule: Q04DX003 (ip), vehicle: distilled water + Tween-80): 100 % of control
- T/C (dose: 3.13 mg/kg/injection, schedule: Q01DX009 (ip), vehicle: saline with Tween-80): 154 % of control
- T/C (dose: 3.89 mg/kg/injection, schedule: Q04DX003 (ip), vehicle: clinical formulation): 111 % of control
- T/C (dose: 5.0 mg/kg/injection, schedule: Q01DX005 (ip), vehicle: Klucel (hydroxypropylcellulose) (HPC)): 156 % of control
- T/C (dose: 5.0 mg/kg/injection, schedule: Q04DX003 (ip), vehicle: distilled water + Tween-80): 110 % of control
- T/C (dose: 5.0 mg/kg/injection, schedule: Q04DX003 (ip), vehicle: water): 106 % of control and 110 % of control
- T/C (dose: 5.0 mg/kg/injection, schedule: Q04DX003 (iv), vehicle: distilled water + Tween-80): 100 % of control
- T/C (dose: 5.0 mg/kg/injection, schedule: Q04DX003 (iv), vehicle: water): 108 % of control
- T/C (dose: 6.25 mg/kg/injection, schedule: Q01DX009 (ip), vehicle: saline with Tween-80): 181 % of control
- T/C (dose: 6.25 mg/kg/injection, schedule: Q04DX003 (ip), vehicle: clinical formulation): 118 % of control and 119 % of control
- T/C (dose: 6.25 mg/kg/injection, schedule: Q04DX003 (ip), vehicle: distilled water + Tween-80): 100 % of control and 121 % of control
- T/C (dose: 6.25 mg/kg/injection, schedule: Q04DX003 (ip), vehicle: saline with Tween-80): 161 % of control
- T/C (dose: 6.25 mg/kg/injection, schedule: Q04DX003 (ip), vehicle: saline): 112 % of control
- T/C (dose: 6.48 mg/kg/injection, schedule: Q04DX003 (ip), vehicle: clinical formulation): 108 % of control
- T/C (dose: 8.0 mg/kg/injection, schedule: Q01DX005 (ip), vehicle: saline with Tween-80): 160 % of control
- T/C (dose: 8.0 mg/kg/injection, schedule: Q01DX005 (iv), vehicle: saline with Tween-80): 115 % of control
- T/C (dose: 10.0 mg/kg/injection, schedule: Q01DX005 (ip), vehicle: Klucel (hydroxypropylcellulose) (HPC)): 153 % of control
- T/C (dose: 10.0 mg/kg/injection, schedule: Q01DX005 (ip), vehicle: saline with Tween-80): 166 % of control
- T/C (dose: 10.0 mg/kg/injection, schedule: Q04DX003 (ip), vehicle: distilled water + Tween-80): 118 % of control
- T/C (dose: 10.0 mg/kg/injection, schedule: Q04DX003 (ip), vehicle: water): 112 % of control
- T/C (dose: 10.0 mg/kg/injection, schedule: Q04DX003 (iv), vehicle: distilled water + Tween-80): 124 % of control
- T/C (dose: 10.0 mg/kg/injection, schedule: Q04DX003 (iv), vehicle: water): 112 % of control
- T/C (dose: 10.8 mg/kg/injection, schedule: Q04DX003 (ip), vehicle: clinical formulation): 110 % of control
- T/C (dose: 12.5 mg/kg/injection, schedule: Q01DX009 (ip), vehicle: saline with Tween-80): 195 % of control and 204 % of control
- T/C (dose: 12.5 mg/kg/injection, schedule: Q04DX002 (ip), vehicle: Klucel (hydroxypropylcellulose) (HPC)): 150 % of control
- T/C (dose: 12.5 mg/kg/injection, schedule: Q04DX003 (ip), vehicle: alkali diluted with water): 164 % of control
- T/C (dose: 13.0 mg/kg/injection, schedule: Q04DX003 (ip), vehicle: water): 123 % of control
- T/C (dose: 16.0 mg/kg/injection, schedule: Q01DX005 (ip), vehicle: saline with Tween-80): 189 % of control
- T/C (dose: 16.0 mg/kg/injection, schedule: Q01DX005 (iv), vehicle: saline with Tween-80): 117 % of control
- T/C (dose: 16.0 mg/kg/injection, schedule: Q01DX005 (oral), vehicle: saline with Tween-80): 155 % of control
- T/C (dose: 18.0 mg/kg/injection, schedule: Q04DX003 (ip), vehicle: clinical formulation): 110 % of control
- T/C (dose: 20.0 mg/kg/injection, schedule: Q01DX005 (ip), vehicle: Klucel (hydroxypropylcellulose) (HPC)): 176 % of control and 177 % of control
- T/C (dose: 20.0 mg/kg/injection, schedule: Q01DX005 (ip), vehicle: saline with Tween-80): 200 % of control
- T/C (dose: 20.0 mg/kg/injection, schedule: Q01DX005 (iv), vehicle: saline with Tween-80): 111 % of control
- T/C (dose: 20.0 mg/kg/injection, schedule: Q04DX003 (ip), vehicle: distilled water + Tween-80): 157 % of control
- T/C (dose: 20.0 mg/kg/injection, schedule: Q04DX003 (ip), vehicle: water): 163 % of control
- T/C (dose: 21.6 mg/kg/injection, schedule: Q04DX002 (ip), vehicle: Klucel (hydroxypropylcellulose) (HPC)): 171 % of control
- T/C (dose: 21.6 mg/kg/injection, schedule: Q04DX003 (ip), vehicle: water): 150 % of control
- T/C (dose: 25.0 mg/kg/injection, schedule: Q01DX009 (ip), vehicle: saline with Tween-80): 204 % of control
- T/C (dose: 25.0 mg/kg/injection, schedule: Q04DX002 (ip), vehicle: Klucel (hydroxypropylcellulose) (HPC)): 153 % of control
- T/C (dose: 25.0 mg/kg/injection, schedule: Q04DX003 (ip), vehicle: alkali diluted with water): 183 % of control
- T/C (dose: 25.0 mg/kg/injection, schedule: Q04DX003 (ip), vehicle: clinical formulation): 178 % of control and 180 % of control
- T/C (dose: 25.0 mg/kg/injection, schedule: Q04DX003 (ip), vehicle: water): 163 % of control
- T/C (dose: 30.0 mg/kg/injection, schedule: Q04DX003 (ip), vehicle: clinical formulation): 198 % of control
- T/C (dose: 32.0 mg/kg/injection, schedule: Q01DX005 (ip), vehicle: saline with Tween-80): 207 % of control
- T/C (dose: 32.0 mg/kg/injection, schedule: Q01DX005 (iv), vehicle: saline with Tween-80): 162 % of control
- T/C (dose: 32.0 mg/kg/injection, schedule: Q01DX005 (oral), vehicle: saline with Tween-80): 186 % of control
- T/C (dose: 36.0 mg/kg/injection, schedule: Q04DX002 (ip), vehicle: Klucel (hydroxypropylcellulose) (HPC)): 191 % of control
- T/C (dose: 36.0 mg/kg/injection, schedule: Q04DX002 (ip), vehicle: saline with Tween-80): 158 % of control
- T/C (dose: 36.0 mg/kg/injection, schedule: Q04DX003 (ip), vehicle: water): 176 % of control
- T/C (dose: 40.0 mg/kg/injection, schedule: Q01DX005 (ip), vehicle: Klucel (hydroxypropylcellulose) (HPC)): 202 % of control and 90 % of control
- T/C (dose: 40.0 mg/kg/injection, schedule: Q01DX005 (ip), vehicle: saline with Tween-80): 227 % of control
- T/C (dose: 40.0 mg/kg/injection, schedule: Q04DX003 (ip), vehicle: distilled water + Tween-80): 193 % of control
- T/C (dose: 40.0 mg/kg/injection, schedule: Q04DX003 (ip), vehicle: water): 117 % of control
- T/C (dose: 43.2 mg/kg/injection, schedule: Q04DX002 (ip), vehicle: saline with Tween-80): 176 % of control
- T/C (dose: 50.0 mg/kg/injection, schedule: Q01DX009 (ip), vehicle: saline with Tween-80): 86 % of control
- T/C (dose: 50.0 mg/kg/injection, schedule: Q04DX002 (ip), vehicle: Klucel (hydroxypropylcellulose) (HPC)): 168 % of control
- T/C (dose: 50.0 mg/kg/injection, schedule: Q04DX003 (ip), vehicle: alkali diluted with water): 221 % of control
- T/C (dose: 50.0 mg/kg/injection, schedule: Q04DX003 (ip), vehicle: clinical formulation): 181 % of control
- T/C (dose: 50.0 mg/kg/injection, schedule: Q04DX003 (ip), vehicle: water): 167 % of control
- T/C (dose: 60.0 mg/kg/injection, schedule: Q04DX002 (ip), vehicle: Klucel (hydroxypropylcellulose) (HPC)): 198 % of control
- T/C (dose: 60.0 mg/kg/injection, schedule: Q04DX002 (ip), vehicle: saline with Tween-80): 161 % of control
- T/C (dose: 60.0 mg/kg/injection, schedule: Q04DX003 (ip), vehicle: water): 219 % of control
- T/C (dose: 72.0 mg/kg/injection, schedule: Q04DX002 (ip), vehicle: saline with Tween-80): 166 % of control and 199 % of control
- T/C (dose: 80.0 mg/kg/injection, schedule: Q04DX003 (ip), vehicle: distilled water + Tween-80): 190 % of control and 254 % of control
- T/C (dose: 90.0 mg/kg/injection, schedule: Q04DX002 (ip), vehicle: saline with Tween-80): 185 % of control and 190 % of control
- T/C (dose: 100.0 mg/kg/injection, schedule: Q04DX002 (ip), vehicle: Klucel (hydroxypropylcellulose) (HPC)): 220 % of control and 230 % of control
- T/C (dose: 100.0 mg/kg/injection, schedule: Q04DX003 (ip), vehicle: alkali diluted with water): 219 % of control
- T/C (dose: 100.0 mg/kg/injection, schedule: Q04DX003 (ip), vehicle: water): 203 % of control
- T/C (dose: 120.0 mg/kg/injection, schedule: Q04DX002 (ip), vehicle: saline with Tween-80): 157 % of control and 218 % of control
- T/C (dose: 134.0 mg/kg/injection, schedule: Q04DX002 (ip), vehicle: saline with Tween-80): 211 % of control and 214 % of control
- T/C (dose: 167.0 mg/kg/injection, schedule: Q04DX002 (ip), vehicle: Klucel (hydroxypropylcellulose) (HPC)): 207 % of control
- T/C (dose: 167.0 mg/kg/injection, schedule: Q04DX002 (ip), vehicle: saline with Tween-80): 158 % of control
- T/C (dose: 200.0 mg/kg/injection, schedule: Q04DX002 (ip), vehicle: Klucel (hydroxypropylcellulose) (HPC)): 88 % of control
- T/C (dose: 200.0 mg/kg/injection, schedule: Q04DX003 (ip), vehicle: alkali diluted with water): 100 % of control
- T/C (dose: 300.0 mg/kg/injection, schedule: Q04DX002 (ip), vehicle: saline with Tween-80): 165 % of control
